Data from PubChem BioAssay (NCI).
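These data come from cells grown in 96-well plates and exposed to compound for 48 hours at five concentrations. TGI marks complete inhibition of growth.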

How the values were obtained:
Assay in all cases: NCI tumour cell line growth inhibition, 48 h
SNB-19 CNS = tested on: SNB-19 CNS
ACHN renal = tested on: ACHN renal
IGROV1 ovarian = tested on: IGROV1 ovarian
TK-10 renal = tested on: TK-10 renal
A498 renal = tested on: A498 renal
MDA-MB-231 breast = tested on: MDA-MB-231 breast
RPMI-8226 leukemia = tested on: RPMI-8226 leukemia
UO-31 renal = tested on: UO-31 renal
A549 NSCLC = tested on: A549 NSCLC
HT29 colon = tested on: HT29 colon
SK-MEL-2 melanoma = tested on: SK-MEL-2 melanoma
MOLT-4 leukemia = tested on: MOLT-4 leukemia
KM12 colon = tested on: KM12 colon
M14 melanoma = tested on: M14 melanoma
786-0 renal = tested on: 786-0 renal
OVCAR-5 ovarian = tested on: OVCAR-5 ovarian
SK-MEL-5 melanoma = tested on: SK-MEL-5 melanoma
SF-295 CNS = tested on: SF-295 CNS
SN12C renal = tested on: SN12C renal
MDA-MB-435 = tested on: MDA-MB-435
NCI-H23 lung = tested on: NCI-H23 lung
UACC-257 melanoma = tested on: UACC-257 melanoma
EKVX NSCLC = tested on: EKVX NSCLC
PC-3 prostate = tested on: PC-3 prostate
MALME-3M melanoma = tested on: MALME-3M melanoma
LOX IMVI melanoma = tested on: LOX IMVI melanoma
NCI/ADR-RES ovarian = tested on: NCI/ADR-RES ovarian
OVCAR-8 ovarian = tested on: OVCAR-8 ovarian
SW-620 colon = tested on: SW-620 colon
SF-268 CNS = tested on: SF-268 CNS
NCI-H226 lung = tested on: NCI-H226 lung
SR leukemia = tested on: SR leukemia
COLO 205 colon = tested on: COLO 205 colon
SNB-75 CNS = tested on: SNB-75 CNS
MCF7 breast = tested on: MCF7 breast
HOP-62 NSCLC = tested on: HOP-62 NSCLC
HS 578T breast = tested on: HS 578T breast
DU-145 prostate = tested on: DU-145 prostate
OVCAR-3 ovarian = tested on: OVCAR-3 ovarian
MDA-N = tested on: MDA-N
K-562 leukemia = tested on: K-562 leukemia
SK-OV-3 ovarian = tested on: SK-OV-3 ovarian
HCT-15 colon = tested on: HCT-15 colon
CCRF-CEM leukemia = tested on: CCRF-CEM leukemia
OVCAR-4 ovarian = tested on: OVCAR-4 ovarian
SK-MEL-28 melanoma = tested on: SK-MEL-28 melanoma
U251 CNS = tested on: U251 CNS
HCT-116 colon = tested on: HCT-116 colon
UACC-62 melanoma = tested on: UACC-62 melanoma
NCI-H522 lung = tested on: NCI-H522 lung
CAKI-1 renal = tested on: CAKI-1 renal
HOP-92 NSCLC = tested on: HOP-92 NSCLC
HCC-2998 colon = tested on: HCC-2998 colon
RXF 393 renal = tested on: RXF 393 renal
SF-539 CNS = tested on: SF-539 CNS
HL-60(TB) leukemia = tested on: HL-60(TB) leukemia
NCI-H460 lung = tested on: NCI-H460 lung
T-47D breast = tested on: T-47D breast

CCOP(=O)(OCC)C1CC(O)C(=O)N1 (stereo not given)
TGI (SNB-19 CNS): > 100 µM
TGI (ACHN renal): > 100 µM
TGI (IGROV1 ovarian): > 100 µM
TGI (TK-10 renal): > 100 µM
TGI (A498 renal): > 100 µM
TGI (MDA-MB-231 breast): > 100 µM
TGI (RPMI-8226 leukemia): > 100 µM
TGI (UO-31 renal): > 100 µM
TGI (A549 NSCLC): > 100 µM
TGI (HT29 colon): > 100 µM
TGI (SK-MEL-2 melanoma): > 100 µM
TGI (MOLT-4 leukemia): > 100 µM
TGI (KM12 colon): > 100 µM
TGI (M14 melanoma): > 100 µM
TGI (786-0 renal): > 100 µM
TGI (OVCAR-5 ovarian): > 100 µM
TGI (SK-MEL-5 melanoma): > 100 µM
TGI (SF-295 CNS): > 100 µM
TGI (SN12C renal): > 100 µM
TGI (MDA-MB-435): > 100 µM
TGI (NCI-H23 lung): > 100 µM
TGI (UACC-257 melanoma): > 100 µM
TGI (EKVX NSCLC): > 100 µM
TGI (PC-3 prostate): > 100 µM
TGI (MALME-3M melanoma): > 100 µM
TGI (LOX IMVI melanoma): > 100 µM
TGI (NCI/ADR-RES ovarian): > 100 µM
TGI (OVCAR-8 ovarian): > 100 µM
TGI (SW-620 colon): > 100 µM
TGI (SF-268 CNS): > 100 µM
TGI (NCI-H226 lung): > 100 µM
TGI (SR leukemia): > 100 µM
TGI (COLO 205 colon): > 100 µM
TGI (SNB-75 CNS): > 100 µM
TGI (MCF7 breast): > 100 µM
TGI (HOP-62 NSCLC): > 100 µM
TGI (HS 578T breast): > 100 µM
TGI (DU-145 prostate): > 100 µM
TGI (OVCAR-3 ovarian): > 100 µM
TGI (MDA-N): > 100 µM
TGI (K-562 leukemia): > 100 µM
TGI (SK-OV-3 ovarian): > 100 µM
TGI (HCT-15 colon): > 100 µM
TGI (CCRF-CEM leukemia): > 100 µM
TGI (OVCAR-4 ovarian): > 100 µM
TGI (SK-MEL-28 melanoma): > 100 µM
TGI (U251 CNS): > 100 µM
TGI (HCT-116 colon): > 100 µM
TGI (UACC-62 melanoma): > 100 µM

CCOC(=O)c1c(N2CCCC2)nsc1Nc1ccc(F)cc1
TGI (SNB-19 CNS): > 100 µM
TGI (ACHN renal): > 100 µM
TGI (IGROV1 ovarian): > 100 µM
TGI (TK-10 renal): > 100 µM
TGI (A498 renal): > 100 µM
TGI (MDA-MB-231 breast): > 100 µM
TGI (RPMI-8226 leukemia): > 100 µM
TGI (NCI-H522 lung): > 100 µM
TGI (CAKI-1 renal): > 100 µM
TGI (UO-31 renal): 46.8 µM
TGI (HOP-92 NSCLC): 95.7 µM
TGI (A549 NSCLC): > 100 µM
TGI (HT29 colon): 68 µM
TGI (SK-MEL-2 melanoma): 46.4 µM
TGI (MOLT-4 leukemia): 70.1 µM
TGI (KM12 colon): > 100 µM
TGI (M14 melanoma): > 100 µM
TGI (786-0 renal): > 100 µM
TGI (OVCAR-5 ovarian): 89.7 µM
TGI (SK-MEL-5 melanoma): 34.3 µM
TGI (SF-295 CNS): > 100 µM
TGI (SN12C renal): > 100 µM
TGI (MDA-MB-435): > 100 µM
TGI (NCI-H23 lung): > 100 µM
TGI (UACC-257 melanoma): > 100 µM
TGI (EKVX NSCLC): > 100 µM
TGI (HCC-2998 colon): > 100 µM
TGI (PC-3 prostate): > 100 µM
TGI (MALME-3M melanoma): 57.5 µM
TGI (LOX IMVI melanoma): > 100 µM
TGI (NCI/ADR-RES ovarian): > 100 µM
TGI (OVCAR-8 ovarian): > 100 µM
TGI (SW-620 colon): > 100 µM
TGI (SF-268 CNS): > 100 µM
TGI (RXF 393 renal): 31.9 µM
TGI (NCI-H226 lung): > 100 µM
TGI (SR leukemia): > 100 µM
TGI (SF-539 CNS): > 100 µM
TGI (HL-60(TB) leukemia): 58.8 µM
TGI (COLO 205 colon): > 100 µM
TGI (NCI-H460 lung): > 100 µM
TGI (HOP-62 NSCLC): > 100 µM
TGI (HS 578T breast): > 100 µM
TGI (DU-145 prostate): > 100 µM
TGI (OVCAR-3 ovarian): > 100 µM
TGI (MDA-N): > 100 µM
TGI (K-562 leukemia): > 100 µM
TGI (SK-OV-3 ovarian): > 100 µM
TGI (HCT-15 colon): > 100 µM
TGI (CCRF-CEM leukemia): 73.7 µM
TGI (OVCAR-4 ovarian): > 100 µM
TGI (SK-MEL-28 melanoma): > 100 µM
TGI (T-47D breast): 46 µM
TGI (U251 CNS): > 100 µM
TGI (HCT-116 colon): > 100 µM
TGI (UACC-62 melanoma): > 100 µM
